Patent US20140187548A1, “6 SUBSTITUTED IMIDAZOPYRAZINES FOR USE AS MPS-1 AND TKK INHIBITORS IN THE TREATMENT OF HYPERPROLIFERATIVE DISORDERS” (BAYER INTELLECTUAL PROPERTY GMBH, priority 2010, published 2014)

The molecules below were run against T1, human kinase Mps-1 (Homo sapiens, UniProt P33981) (assay: Mps-1 kinase assay (TR-FRET)). Details: N-terminally GST-tagged human full length recombinant Mps-1; 10 μM ATP; 1 μM peptide substrate; 15 min pre-incubation; 60 min at 22° C.
T1 construct: N-terminally GST-tagged human full length recombinant Mps-1 kinase; GST (N); purchased Invitrogen, Karslruhe, Germany PV4071
T1 sequence (P33981 1-857): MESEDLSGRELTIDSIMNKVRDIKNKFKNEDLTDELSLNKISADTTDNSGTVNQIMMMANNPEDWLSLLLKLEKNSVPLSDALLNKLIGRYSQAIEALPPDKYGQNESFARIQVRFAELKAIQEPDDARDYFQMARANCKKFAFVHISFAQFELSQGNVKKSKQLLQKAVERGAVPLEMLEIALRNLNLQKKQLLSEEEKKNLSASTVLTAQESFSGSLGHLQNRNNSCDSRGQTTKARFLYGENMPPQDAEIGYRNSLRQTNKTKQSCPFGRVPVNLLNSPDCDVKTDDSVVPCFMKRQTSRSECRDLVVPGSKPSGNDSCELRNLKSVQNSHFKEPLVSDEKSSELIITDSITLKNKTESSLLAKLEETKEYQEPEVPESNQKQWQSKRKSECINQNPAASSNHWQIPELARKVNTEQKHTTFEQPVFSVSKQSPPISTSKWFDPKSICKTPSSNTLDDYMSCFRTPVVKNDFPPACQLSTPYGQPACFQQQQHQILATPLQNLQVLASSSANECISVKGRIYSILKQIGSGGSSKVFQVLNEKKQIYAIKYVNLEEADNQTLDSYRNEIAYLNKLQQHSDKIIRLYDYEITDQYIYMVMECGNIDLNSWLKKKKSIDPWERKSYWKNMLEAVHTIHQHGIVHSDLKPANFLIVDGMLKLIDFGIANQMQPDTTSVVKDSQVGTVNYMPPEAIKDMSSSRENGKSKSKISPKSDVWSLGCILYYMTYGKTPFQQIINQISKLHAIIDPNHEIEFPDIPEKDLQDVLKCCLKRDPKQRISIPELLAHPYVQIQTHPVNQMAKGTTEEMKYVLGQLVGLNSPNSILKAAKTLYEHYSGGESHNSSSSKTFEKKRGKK
Format: biochemical
Procedure: The human kinase Mps-1 phosphorylates a biotinylated substrate peptide. Detection of the phosphorylated product is achieved by time-resolved fluorescence resonance energy transfer (TR-FRET) from Europium-labelled anti-phospho-Serine/Threonine antibody as donor to streptavidin labelled with cross-linked allophycocyanin (SA-XLent) as acceptor. Compounds are tested for their inhibition of the kinase activity.
N-terminally GST-tagged human full length recombinant Mps-1 kinase (purchased from Invitrogen, Karslruhe, Germany, cat. no PV4071) was used. As substrate for the kinase reaction a biotinylated peptide of the amino-acid sequence […] (C-terminus in amide form, purchased from Biosynthan GmbH, Berlin) was used.
The concentration of Mps-1 in the assay was adjusted to the activity of the enzyme lot and was chosen appropriate to have the assay in the linear range, typical enzyme concentrations were in the range of about 1 nM (final conc. in the 5 μl assay volume).
The resulting mixture was incubated 1 h at 22° C. to allow the binding of the phosphorylated peptide to the anti-phospho(Ser/Thr)-Europium-antibody. Subsequently the amount of phosphorylated substrate was evaluated by measurement of the resonance energy transfer from the Europium-labelled anti-phospho(Ser/Thr) antibody to the Streptavidin-XLent. Therefore, the fluorescence emissions at 620 nm and 665 nm after excitation at 350 nm was measured in a Viewlux TR-FRET reader (PerkinElmer LAS, Rodgau-Jügesheim, Germany). The “blank-corrected normalized ratio” (a Viewlux specific readout, similar to the traditional ratio of the emissions at 665 nm and at 622 nm, in which blank and Eu-donor crosstalk are subtracted from the 665 nm signal before the ratio is calculated) was taken as the measure for the amount of phosphorylated substrate.
Work on CC(C)CNc1nc(-c2cccc(C(N)=O)c2)cn2c(-c3ccc(C(=O)NC4CC4)cc3)cnc12 [Example 1-25, 4-{6-(3-carbamoylphenyl)-8-[(2-methylpropyl)amino]imidazo[1,2-a]pyrazin-3-yl}-N-cyclo-propylbenzamide] yielded an IC50 of 1.2 nM. CC(C)CNc1nc(-c2ccc(C(=O)N3CCCC3)cc2)cn2c(-c3ccc(C(=O)NC4CC4)cc3)cnc12 [Example 1-26, N-cyclopropyl-4-{8-[(2-methylpropyl)amino]-6-[4-(pyrrolidin-1-yl-carbonyl)phenyl]imidazo [1,2-a]pyrazin-3-yl} benzamide] showed an IC50 of 3.9 nM. CC(C)CNc1nc(-c2cccc(C(=O)N(C)C)c2)cn2c(-c3ccc(C(=O)NC4CC4)cc3)cnc12 [Example 1-27, 3-{3-[4-(cyclopropyl-carbamoyl)phenyl]-8-[(2-methylpropyl)amino]imidazo[1,2-a]pyrazin-6-yl}-N,N-dimethyl-benzamide] was tested, and the IC50 was 8.1 nM. CC(C)CNc1nc(-c2ccccc2C(=O)N(C)C)cn2c(-c3ccc(C(=O)NC4CC4)cc3)cnc12 [Example 1-28, 2-{3-[4-(cyclopropyl-carbamoyl)phenyl]-8-[(2-methylpropyl)amino]imidazo[1,2-a]pyrazin-6-yl}-N,N-dimethyl-benzamide] showed an IC50 of 8.2 nM. With CC(C)CNc1nc(-c2cccc(OC(C)C)c2)cn2c(-c3ccc(C(=O)NC4CC4)cc3)cnc12 [Example 1-29, N-cyclopropyl-4-{8-[(2-methylpropyl)amino]-6-[3-(propan-2-yloxy)phenyl]imidazo[1,2-a]pyrazin-3-yl}benzamide] the IC50 was 15.1 nM. Work on CC(C)CNc1nc(-c2ccc(C(=O)NC3CC3)cc2)cn2c(-c3ccc(C(=O)NC4CC4)cc3)cnc12 [Example 1-30, 4,4′-{8-[(2-methylpropyl)amino]imidazo[1,2-a]pyrazine-3,6-diyl}bis (N-cyclopropylbenzamide)] yielded an IC50 of 1.5 nM. Work on CNC(=O)c1ccc(-c2cn3c(-c4ccc(C(=O)NC5CC5)cc4)cnc3c(NCC(C)C)n2)cc1 [Example 1-31, 4-{3-[4-(cyclopropyl-carbamoyl)phenyl]-8-[(2-methylpropyl)amino]imidazo[1,2-a]pyrazin-6-yl}-N-methylbenzamide] yielded an IC50 of 1.3 nM. With CC(C)CNc1nc(-c2cccc3cnccc23)cn2c(-c3ccc(C(=O)NC4CC4)cc3)cnc12 [Example 1-32, N-cyclopropyl-4-{6-(iso-quinolin-5-yl)-8-[(2-methylpropyl)amino]imidazo[1,2-a]pyrazin-3-yl}benzamide] the IC50 was 1.3 nM. Work on CNC(=O)c1cccc(-c2cn3c(-c4ccc(C(=O)NC5CC5)cc4)cnc3c(NCC(C)C)n2)c1 [Example 1-33, 3-{3-[4-(cyclopropyl-carbamoyl)phenyl]-8-[(2-methylpropyl)amino]imidazo[1,2-a]pyrazin-6-yl}-N-methylbenzamide] yielded an IC50 of 1.4 nM. Work on CC(C)CNc1nc(-c2ccc(C(=O)NC(C)C)cc2)cn2c(-c3ccc(C(=O)NC4CC4)cc3)cnc12 [Example 1-34, 4-{3-[4-(cyclopropyl-carbamoyl)phenyl]-8-[(2-methylpropyl)amino]imidazo[1,2-a]pyrazin-6-yl}-N-(propan-2-yl) benzamide] yielded an IC50 of 4.2 nM. In the case of CC(C)CNc1nc(-c2cccc(C(F)(F)F)c2)cn2c(-c3ccc(C(=O)NC4CC4)cc3)cnc12 [Example 1-35, N-cyclopropyl-4-{8-[(2-methylpropyl)amino]-6-[3-(trifluoromethyl)phenyl]imidazo[1,2-a]pyrazin-3-yl}benzamide], the IC50 is reported as 49.3 nM. CC(C)CNc1nc(-c2ccc(C(F)(F)F)cc2)cn2c(-c3ccc(C(=O)NC4CC4)cc3)cnc12 [Example 1-36, N-cyclopropyl-4-{8-[(2-methylpropyl)amino]-6-[4-(trifluoromethyl)phenyl]imidazo[1,2-a]pyrazin-3-yl}benzamide] was tested, and the IC50 was 30 nM. CC(C)CNc1nc(-c2cccc(Cl)c2)cn2c(-c3ccc(C(=O)NC4CC4)cc3)cnc12 [Example 1-37, 4-{6-(3-chlorophenyl)-8-[(2-methylpropyl)amino]imidazo[1,2-a]pyrazin-3-yl}-N-cyclopropyl-benzamide] was tested, and the IC50 was 15.2 nM. Work on COc1cccc(-c2cn3c(-c4ccc(C(=O)NC5CC5)cc4)cnc3c(NCC(C)C)n2)c1 [Example 1-38, N-cyclopropyl-4-{6-(3-methoxyphenyl)-8-[(2-methylpropyl)amino]imidazo[1,2-a]pyrazin-3-yl}benzamide] yielded an IC50 of 4.8 nM. Cc1cc(C)cc(-c2cn3c(-c4ccc(C(=O)NC5CC5)cc4)cnc3c(NCC(C)C)n2)c1 [Example 1-39, N-cyclopropyl-4-{6-(3,5-dimethylphenyl)-8-[(2-methylpropyl)amino]imidazo[1,2-a]pyrazin-3-yl}benzamide] showed an IC50 of 32.3 nM. In the case of CC(C)CNc1nc(-c2cccc(F)c2)cn2c(-c3ccc(C(=O)NC4CC4)cc3)cnc12 [Example 1-40, N-cyclopropyl-4-{6-(3-fluorophenyl)-8-[(2-methylpropyl)amino]imidazo[1,2-a]pyrazin-3-yl}benzamide], the IC50 is reported as 6.9 nM. For COc1ccccc1-c1cn2c(-c3ccc(C(=O)NC4CC4)cc3)cnc2c(NCC(C)C)n1 [Example 1-41, N-cyclopropyl-4-{6-(2-methoxyphenyl)-8-[(2-methylpropyl)amino]imidazo[1,2-a]pyrazin-3-yl}benzamide], the IC50 was 7.4 nM. CC(C)CNc1nc(-c2ccc3ccccc3c2)cn2c(-c3ccc(C(=O)NC4CC4)cc3)cnc12 [Example 1-42, N-cyclopropyl-4-{8-[(2-methylpropyl)amino]-6-(naphthalen-2-yl)imidazo[1,2-a]pyrazin-3-yl}benzamide] was tested, and the IC50 was 49 nM. CC(C)CNc1nc(-c2ccccc2C(F)(F)F)cn2c(-c3ccc(C(=O)NC4CC4)cc3)cnc12 [Example 1-43, N-cyclopropyl-4-{8-[(2-methylpropyl)amino]-6-[2-(trifluoromethyl)phenyl]imidazo[1,2-a]pyrazin-3-yl}benzamide] was tested, and the IC50 was 16.3 nM. For CCOc1cccc(-c2cn3c(-c4ccc(C(=O)NC5CC5)cc4)cnc3c(NCC(C)C)n2)c1 [Example 1-44, N-cyclopropyl-4-{6-(3-ethoxyphenyl)-8-[(2-methylpropyl)amino]imidazo[1,2-a]pyrazin-3-yl}benzamide], the IC50 was 5.8 nM. With CC(C)CNc1nc(-c2ccc(Cl)c(Cl)c2)cn2c(-c3ccc(C(=O)NC4CC4)cc3)cnc12 [Example 1-45, N-cyclopropyl-4-{6-(3,4-dichlorophenyl)-8-[(2-methylpropyl)amino]imidazo[1,2-a]pyrazin-3-yl}benzamide] the IC50 was 22.6 nM. Molecule CC(=O)c1cccc(-c2cn3c(-c4ccc(C(=O)NC5CC5)cc4)cnc3c(NCC(C)C)n2)c1 [Example 1-46, 4-{6-(3-acetylphenyl)-8-[(2-methylpropyl)amino]imidazo[1,2-a]pyrazin-3-yl}-N-cyclo-propylbenzamide] has an IC50 of 2.3 nM. With CC(C)CNc1nc(-c2ccc(Oc3ccccc3)cc2)cn2c(-c3ccc(C(=O)NC4CC4)cc3)cnc12 [Example 1-47, N-cyclopropyl-4-{8-[(2-methylpropyl)amino]-6-(4-phenoxyphenyl)imidazo[1,2-a]pyrazin-3-yl}benzamide] the IC50 was 78.9 nM. CC(=O)c1ccc(-c2cn3c(-c4ccc(C(=O)NC5CC5)cc4)cnc3c(NCC(C)C)n2)cc1 [Example 1-48, 4-{6-(4-acetylphenyl)-8-[(2-methylpropyl)amino]imidazo[1,2-a]pyrazin-3-yl}-N-cyclopropyl-benzamide] showed an IC50 of 1.1 nM. CC(C)CNc1nc(-c2ccc(-c3ccccc3)cc2)cn2c(-c3ccc(C(=O)NC4CC4)cc3)cnc12 [Example 1-49, 4-{6-(biphenyl-4-yl)-8-[(2-methylpropyl)amino]imidazo[1,2-a]pyrazin-3-yl}-N-cyclopropyl-benzamide] showed an IC50 of 7.2 nM.
